Experimental data taken from ChEMBL document CHEMBL1667793, “Synthesis and DNA photocleavage by a pyridine-linked bis-acridine chromophore in the presence of copper(II): ionic strength effects” (Bioorg Med Chem Lett, 2011).
The source made the active and inactive calls. The rule behind the calls is not given here.

Tests used:
Type in all cases: nucleic-acid assay
[1] = test system: Nucleic Acid; experiment: (§1) Induction of Escherichia coli pUC19 DNA cleavage assessed as conversion of supercoiled DNA to nicked and linear form of DNA at 10 to 30 uM after 1 hr followed by irradiated for 60 mins by ethidium bromide staining in presence of 1 mol equivalent of copper chloride and 150 mM sodium chloride
[2] = test system: Nucleic Acid; experiment: Inhibition of Escherichia coli pUC19 DNA photocleavage at 10 uM after 1 hr followed by irradiated for 60 mins by ethidium bromide staining in presence of 100 uM of sodium azide and 1 mol equivalent of copper chloride
[3] = test system: Nucleic Acid; experiment: Inhibition of Escherichia coli pUC19 DNA photocleavage assessed as conversion of supercoiled DNA to linear form of DNA at 10 uM after 1 hr followed by irradiated for 60 mins by ethidium bromide staining in presence of 100 uM of sodium azide
[4] = test system: Nucleic Acid; experiment: Inhibition of Escherichia coli pUC19 DNA photocleavage at 10 uM after 1 hr followed by irradiated for 60 mins by ethidium bromide staining in presence of 100 uM of sodium azide
[5] = test system: Calf thymus DNA; experiment: Binding affinity to calf thymus DNA at 10 uM by UV-visible spectra analysis in presence of 1 mol equivalent of copper chloride and 260 mM of potassium chloride; conditions: Bos taurus
[6] = test system: Nucleic Acid; experiment: Inhibition of Escherichia coli pUC19 DNA photocleavage assessed as conversion of supercoiled DNA to nicked form of DNA at 10 uM after 1 hr followed by irradiated for 60 mins by ethidium bromide staining in presence of 100 uM of sodium azide and 1 mol equivalent of copper chloride
[7] = test system: Nucleic Acid; experiment: Induction of Escherichia coli pUC19 DNA cleavage assessed as conversion of supercoiled DNA to nicked and linear form of DNA at 2 to 50 uM after 60 mins by ethidium bromide staining
[8] = test system: Nucleic Acid; experiment: Inhibition of Escherichia coli pUC19 DNA photocleavage assessed as conversion of supercoiled DNA to linear form of DNA at 10 uM after 1 hr followed by irradiated for 60 mins by ethidium bromide staining in presence of 100 uM of sodium benzoate and 1 mol equivalent of copper chloride
[9] = test system: Nucleic Acid; experiment: Induction of Escherichia coli pUC19 DNA cleavage assessed as conversion of supercoiled DNA to nicked and linear form of DNA at 2 to 20 uM irradiated for 50 mins measured after 60 mins by ethidium bromide staining in presence of 1 mol equivalent of copper chloride
[10] = test system: Nucleic Acid; experiment: Inhibition of Escherichia coli pUC19 DNA photocleavage assessed as conversion of supercoiled DNA to linear form of DNA at 10 uM after 1 hr followed by irradiated for 60 mins by ethidium bromide staining in presence of 100 uM of sodium benzoate
[11] = test system: Nucleic Acid; experiment: Induction of Escherichia coli pUC19 DNA cleavage assessed as conversion of supercoiled DNA to nicked and linear form of DNA at 10 to 30 uM after 1 hr followed by irradiated for 60 mins by ethidium bromide staining in presence of 1 mol equivalent of copper chloride and 240 mM of potassium chloride
[12] = test system: Nucleic Acid; experiment: Inhibition of Escherichia coli pUC19 DNA photocleavage at 10 uM after 1 hr followed by irradiated for 60 mins by ethidium bromide staining in presence of 100 uM of sodium benzoate and 1 mol equivalent of copper chloride
[13] = test system: Calf thymus DNA; experiment: Binding affinity to calf thymus DNA at 10 uM assessed as change in melting temperature; conditions: Bos taurus
[14] = test system: Nucleic Acid; experiment: Inhibition of Escherichia coli pUC19 DNA photocleavage at 10 uM after 1 hr followed by irradiated for 60 mins by ethidium bromide staining in presence of 100 uM of sodium benzoate
[15] = test system: Nucleic Acid; experiment: Inhibition of Escherichia coli pUC19 DNA photocleavage assessed as conversion of supercoiled DNA to nicked form of DNA at 10 uM after 1 hr followed by irradiated for 60 mins by ethidium bromide staining in presence of 100 uM of sodium azide
[16] = test system: Nucleic Acid; experiment: Inhibition of Escherichia coli pUC19 DNA photocleavage assessed as conversion of supercoiled DNA to linear form of DNA at 10 uM after 1 hr followed by irradiated for 60 mins by ethidium bromide staining in presence of 100 uM of sodium azide and 1 mol equivalent of copper chloride
[17] = test system: Nucleic Acid; experiment: Inhibition of Escherichia coli pUC19 DNA photocleavage assessed as conversion of supercoiled DNA to nicked form of DNA at 10 uM after 1 hr followed by irradiated for 60 mins by ethidium bromide staining in presence of 100 uM of sodium benzoate
[18] = test system: Nucleic Acid; experiment: Inhibition of Escherichia coli pUC19 DNA photocleavage assessed as conversion of supercoiled DNA to nicked form of DNA at 10 uM after 1 hr followed by irradiated for 60 mins by ethidium bromide staining in presence of 100 uM of sodium benzoate and 1 mol equivalent of copper chloride
[19] = test system: Nucleic Acid; experiment: Induction of Escherichia coli pUC19 DNA cleavage assessed as conversion of supercoiled DNA to nicked and linear form of DNA at 10 uM irradiated for 50 mins measured after 60 mins by ethidium bromide staining
[20] = test system: Nucleic Acid; experiment: as §1, with “sodium chloride and 240 mM of potassium chloride” for “sodium chloride”
[21] = test system: Calf thymus DNA; experiment: Binding affinity to calf thymus DNA at 10 uM assessed as change in melting temperature in presence of copper; conditions: Bos taurus

## Nc1ccc2cc3ccc(NCc4cccc(CNc5ccc6cc7ccc(N)cc7nc6c5)n4)cc3nc2c1
[1]
  Activity: Active
[2]
  inhibition: 5%
[3]
  inhibition: 80%
[4]
  inhibition: 34%
[5]
  Activity: Active
[6]
  inhibition: -1%
[7]
  Activity: Active
[8]
  inhibition: 88%
[9]
  Activity: inactive
[10]
  inhibition: 91%
[11]
  Activity: Active
[12]
  inhibition: 0%
[13]
  Tm: 79 °C
[14]
  inhibition: 0%
[15]
  inhibition: 29%
[16]
  inhibition: 82%
[17]
  inhibition: -10%
[18]
  inhibition: -7%
[19]
  Activity: Active
[20]
  Activity: Active
[21]
  Tm: 80 °C
